Results on 31 molecules are retold here after ChEMBL document CHEMBL5608113, “Targeting of CAF-induced therapy resistance in CRC organoid-stroma co-cultures” (2024).

The structures appear in SMILES notation.

What all share (format): functional, Homo sapiens
Holding throughout (conditions): Homo sapiens, read-out: Cell Viability; for viability at 10 µM: Concentration 10 uM; for viability at 1 µM: Concentration 1 uM

In test [1] the test system is Colon cancer organoid. Briefly: Targeting of F14 CAF-induced therapy resistance in O23 CRC organoid-stroma co-culture. Cell viability is reported with Gefitinib.
Test [2] deals with Colon cancer organoid. Briefly: Targeting of F14 CAF-induced therapy resistance in O14 CRC organoid-stroma co-culture. Cell viability is reported with Gefitinib.
In test [3] the test system is Colon cancer organoid. In words: Targeting of F14 CAF-induced therapy resistance in O14 CRC organoid-stroma co-culture. Cell viability is reported without Gefitinib.
Test [4] relates to Colon cancer organoid. In words: Targeting of F14 CAF-induced therapy resistance in O23 CRC organoid-stroma co-culture. Cell viability is reported with SN-38.
The test system of test [5] is Colon cancer organoid. In words: Targeting of F14 CAF-induced therapy resistance in O23 CRC organoid-stroma co-culture. Cell viability is reported without Gefitinib.

Regarding `COc1cc2c(NC3CCN(C(C)C)CC3)nc(N3CCC(F)(F)CC3)nc2cc1OCCCN1CCCC1`, the viability (usually a read-out of living cells in per cent, often relative to untreated cells) at 10 µM with Colon cancer organoid [1] stood at 62.4%; in the test with Colon cancer organoid [2] it was 56.9%; with Colon cancer organoid [3] it was 71.2%; in the test with Colon cancer organoid [4], 91.7%; in the test on Colon cancer organoid [5] it was 107%.
Turning to `CC(=O)Nc1c(C(C)=O)c(=O)n(C)c2nc(-c3ccc(Cl)cc3Cl)c(-c3ccc(Cl)cc3)cc12` [NAPHTHYRIDINONE], the viability at 10 µM is 58.3% in the test on Colon cancer organoid [1]; 48.1% with Colon cancer organoid [2]; 119% with Colon cancer organoid [3]; 81.5% in the test on Colon cancer organoid [4]; 109% in the test with Colon cancer organoid [5].
With `Cc1cc(CN)cc(C)c1-c1ncn(C)c1-c1ccnc2cc(F)ccc12`, the viability at 10 µM came to 53.8% in the test on Colon cancer organoid [1]; 63.2% in the test with Colon cancer organoid [2]; 90.5% in the test with Colon cancer organoid [3]; 86.8% in the test with Colon cancer organoid [4]; 122% with Colon cancer organoid [5].
With `Cc1cc(=O)n(C)c2cc(N3C(=O)CC[C@H](NS(=O)(=O)CC(C)C)[C@H]3c3ccc(Cl)cc3)ccc12`, the viability at 10 µM was determined as 66% in the test on Colon cancer organoid [1]; 72.6% in the test with Colon cancer organoid [2]; 75.8% with Colon cancer organoid [3]; 81.7% with Colon cancer organoid [4]; 144% in the test on Colon cancer organoid [5].
Turning to `Cn1c(C2(NC(=O)c3ccc4c(C5CCCC5)c(-c5ncc(Br)cn5)n(C)c4c3)CCC2)nc2ccc(/C=C/C(=O)O)cc21` [DELEOBUVIR], the viability at 10 µM came out at 94.6% in the test with Colon cancer organoid [1]; 50.5% in the test with Colon cancer organoid [2]; 126% with Colon cancer organoid [3]; 60.4% in the test on Colon cancer organoid [4]; 112% in the test with Colon cancer organoid [5].
With `CN1C(=O)[C@@H](N2CCc3cn(Cc4ccccc4)nc3C2=O)COc2ccccc21` [TP-030-1], the viability at 1 µM in the test on Colon cancer organoid [1] turned out to be 56%; in the test with Colon cancer organoid [2], 40.8%; in the test on Colon cancer organoid [3], 125%; in the test on Colon cancer organoid [4], 66.7%; in the test with Colon cancer organoid [5], 138%.
Consider `CCN(CCO)CCCOc1ccc2c(Nc3cc(CC(=O)Nc4cccc(F)c4)[nH]n3)ncnc2c1` [DEFOSBARASERTIB], for which the viability at 10 µM in the test on Colon cancer organoid [1] is 19.2%; in the test on Colon cancer organoid [2], 3.88%; in the test with Colon cancer organoid [3] it was 9.69%; with Colon cancer organoid [4] it was 28.3%; in the test on Colon cancer organoid [5], 62.1%.
On to `CN([C@@H]1CCc2c(CC(=O)O)c3ccccc3n2C1)S(=O)(=O)c1ccc(F)cc1` [MK-7246], for which the viability at 10 µM in the test with Colon cancer organoid [1] was found to be 46.3%; in the test on Colon cancer organoid [2], 43.4%; in the test with Colon cancer organoid [3], 88.6%; with Colon cancer organoid [4], 76.2%; with Colon cancer organoid [5], 79.7%.
In the same order, the values of `CN([C@@H]1CCc2c(CC(=O)O)c3cc(S(C)(=O)=O)ccc3n2C1)S(=O)(=O)c1ccc(F)cc1` [CRTH2-negative-control] are 24.9%, 37%, 98.2%, 54.8% and 76.2%.
Consider `CSc1cccnc1N1CCN(Cc2nc3ccccc3[nH]2)CC1` [A-769], for which the viability at 10 µM was 59% in the test on Colon cancer organoid [1]; 36.4% in the test on Colon cancer organoid [2]; 73.4% in the test with Colon cancer organoid [3]; 103% with Colon cancer organoid [4]; 111% in the test with Colon cancer organoid [5].
Regarding `CCC(F)(F)c1cc(N2CCC(S(C)(=O)=O)CC2)nc2sc(C(N)=O)c(N)c12` [BI-605906], the viability at 10 µM amounted to 53.3% in the test on Colon cancer organoid [1]; 50.7% in the test with Colon cancer organoid [2]; 125% in the test on Colon cancer organoid [3]; 62.6% in the test on Colon cancer organoid [4]; 102% in the test with Colon cancer organoid [5].
On to `Cc1c(NC(=O)c2cc(C(N)=O)nc3cc(F)ccc23)c(C(F)(F)F)nn1Cc1ccc(C#N)cc1` [BAY-876], for which the viability at 10 µM in the test on Colon cancer organoid [1] came out at 15%; in the test on Colon cancer organoid [2], 5.75%; with Colon cancer organoid [3], 16.3%; in the test with Colon cancer organoid [4] it was 39.6%; in the test with Colon cancer organoid [5] it was 43.8%.
In the same order, the values of `CO[C@H]1CNC[C@@H](OCC2CCC(F)(F)CC2)[C@@H]1Nc1ncc(-c2cncc(C)c2)c2cc(C)c(=O)[nH]c12` are 78.8%, 65.2%, 78.7%, 81.8% and 104%.
As for `Cc1nc(C2CCN(C(=O)c3ccc(OC(F)(F)F)cc3N)CC2)c2ncc(N3CCN(C)CC3)cc2n1` [BAY-693], the viability at 10 µM amounted to 46.5% with Colon cancer organoid [1]; 32.1% with Colon cancer organoid [2]; 76.4% in the test with Colon cancer organoid [3]; 53.6% with Colon cancer organoid [4]; 119% in the test with Colon cancer organoid [5].
In the same order, the values of `FC(F)(F)c1ccc2c(c1)nc(-c1cccnc1)n2C1CC1` [MSD-CYP11B2-Negative-control] are 69.7%, 32.7%, 65.1%, 92.9% and 150%.
On to `CC(=O)C1=C(C)N(c2cccc(C(F)(F)F)c2)C(=O)N[C@@H]1c1ccc(C#N)nc1` [BAY-678], for which the viability at 10 µM was found to be 61.8% in the test with Colon cancer organoid [1]; 41.2% in the test on Colon cancer organoid [2]; 103% with Colon cancer organoid [3]; 75.6% in the test on Colon cancer organoid [4]; 108% in the test with Colon cancer organoid [5].
In the same order, the values of `O=C(O)c1cc(-c2ccc(C3CCNCC3)cc2)c2ccc(-c3ccc(C(F)(F)F)cc3)cc2c1` are 47.6%, 34.4%, 77%, 60.3% and 165%.
Regarding `Cn1cc(Cl)c2c(Oc3c(F)cc(Nc4cc(Cl)nc(N)n4)cc3F)ccnc21` [BAY-4900], the viability at 10 µM turned out to be 40.3% with Colon cancer organoid [1]; 30.9% in the test on Colon cancer organoid [2]; 85% in the test on Colon cancer organoid [3]; 54.4% in the test with Colon cancer organoid [4]; 107% in the test on Colon cancer organoid [5].
Turning to `Cc1cc(-n2nc(Cc3cc(F)cc(C(F)(F)F)c3)nc2C)ccc1C(N)=O` [TP-024], the viability at 10 µM in the test on Colon cancer organoid [1] was 79%; in the test on Colon cancer organoid [2], 49.8%; with Colon cancer organoid [3] it was 110%; with Colon cancer organoid [4], 81%; with Colon cancer organoid [5], 153%.
Regarding `COc1cc(Nc2ccnc3ccc(Br)cc23)cc(OC)c1OC`, the viability at 10 µM with Colon cancer organoid [1] amounted to 6.32%; in the test with Colon cancer organoid [2] it was 8.76%; with Colon cancer organoid [3] it was 18.2%; in the test with Colon cancer organoid [4] it was 12.5%; in the test on Colon cancer organoid [5] it was 35%.
Regarding `CC(=O)c1cc(-c2ccccc2OCC2CC2)c2ncccn12`, the viability at 10 µM stood at 76.3% in the test with Colon cancer organoid [1]; 73.2% in the test on Colon cancer organoid [2]; 80.2% with Colon cancer organoid [3]; 102% in the test on Colon cancer organoid [4]; 142% in the test with Colon cancer organoid [5].
As to `Nc1nc(NCc2ccccc2)nc(-c2ccccc2CO)n1` [Ogerin], the viability at 10 µM with Colon cancer organoid [1] was found to be 71.3%; in the test with Colon cancer organoid [2], 26.8%; in the test on Colon cancer organoid [3] it was 123%; with Colon cancer organoid [4], 106%; in the test with Colon cancer organoid [5], 222%.
As for `Cc1ccc(-c2cnc([C@@]3(O)CC[C@H](C(=O)O)C(C)(C)C3)s2)cc1Nc1cccc(C(F)(F)F)n1` [MRL-SYKi-NC], the viability at 10 µM amounted to 51.3% in the test on Colon cancer organoid [1]; 48.6% with Colon cancer organoid [2]; 110% in the test on Colon cancer organoid [3]; 73.3% in the test on Colon cancer organoid [4]; 139% in the test on Colon cancer organoid [5].
Consider `Cc1c(Nc2ccc(S(=O)(=O)N3CCN(C)CC3)cc2F)nc2ccc(-c3cnn(C4CC4)c3)cn2c1=O`, for which the viability at 10 µM in the test with Colon cancer organoid [1] amounted to 88.9%; with Colon cancer organoid [2] it was 69.8%; in the test with Colon cancer organoid [3] it was 51.6%; with Colon cancer organoid [4], 85.7%; in the test on Colon cancer organoid [5], 153%.
As for `Cc1cc(C)cc([C@@H]2c3cc(C)ccc3NC(=O)CN2C(=O)c2ccc(Br)s2)c1`, the viability at 10 µM is 76% in the test with Colon cancer organoid [1]; 78.3% in the test with Colon cancer organoid [2]; 85.7% in the test with Colon cancer organoid [3]; 82.1% in the test on Colon cancer organoid [4]; 110% with Colon cancer organoid [5].
As to `NC(=O)c1ccc2nc(-c3ccc(C4(N)CCC4)cc3)c(-c3ccccc3)n2n1` [BAY-1125976], the viability at 1 µM with Colon cancer organoid [1] amounted to 38%; with Colon cancer organoid [2] it was 52.1%; in the test with Colon cancer organoid [3], 152%; in the test on Colon cancer organoid [4], 47.7%; in the test on Colon cancer organoid [5] it was 86%.
Take `Cc1nccc(COC(=O)N2C[C@@H]3[C@@H](CNC(=O)c4ccc5[nH]nnc5c4)[C@@H]3C2)n1` [BI 3017]: the viability at 10 µM in the test with Colon cancer organoid [1] was 38.3%; with Colon cancer organoid [2], 7.21%; with Colon cancer organoid [3], 7.82%; in the test on Colon cancer organoid [4], 76%; in the test on Colon cancer organoid [5] it was 161%.
`CCC(=N\O)/C(C)=C/c1ccc(F)c(C)c1` [A-226]: the viability at 10 µM in the test with Colon cancer organoid [1] is 49.8%; with Colon cancer organoid [2] it was 62.5%; with Colon cancer organoid [3], 119%; in the test on Colon cancer organoid [4] it was 93.1%; with Colon cancer organoid [5] it was 97.1%.
For the molecule `O=C(O)c1ccc(-c2coc3ncc(-c4ccccc4)cc23)cc1Cl`, the viability at 10 µM in the test on Colon cancer organoid [1] was determined as 172%; with Colon cancer organoid [2], 73.9%; in the test on Colon cancer organoid [3], 71.5%; in the test on Colon cancer organoid [4], 103%; in the test on Colon cancer organoid [5], 214%.
Regarding `CCOC(=O)c1cc2cc(-c3cc(C(=O)NCc4ccc(C(=O)O)cc4)nn3C)ccc2[nH]1` [BI 4394], the viability at 1 µM in the test on Colon cancer organoid [1] worked out at 77.1%; in the test with Colon cancer organoid [2], 59.3%; with Colon cancer organoid [3] it was 95.7%; in the test on Colon cancer organoid [4], 83.8%; in the test with Colon cancer organoid [5], 148%.
Take `O=C(Nc1cccnn1)N1CC(C/C=C/c2cncc(Oc3ccc(C(F)(F)F)cn3)n2)C1`: the viability at 10 µM was 50.3% in the test on Colon cancer organoid [1]; 55.5% with Colon cancer organoid [2]; 93.5% with Colon cancer organoid [3]; 83.6% in the test on Colon cancer organoid [4]; 132% in the test on Colon cancer organoid [5].
